Measured values as given in ChEMBL document CHEMBL1201862, “PubChem BioAssay data set” (2004).
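Compound exposure: 48 hours, 5 concentrations, 96-well plates. GI50 is the concentration that inhibits growth by half.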 Activity calls are given as the source filed them. Rule as the data show it: active = GI50 up to about 1.1 µM and inactive = higher.

How the values were obtained:
Assay in all cases: DTP human tumour cell line panel, 48 h
OVCAR-4 = system: OVCAR-4
HOP-62 = system: HOP-62
HT-29 = system: HT-29
UACC-62 = system: UACC-62
SF-268 = system: SF-268
CAKI-1 = system: CAKI-1
OVCAR-3 = system: OVCAR-3
DU-145 = system: DU-145
UACC-257 = system: UACC-257
MDA-MB-435 = system: MDA-MB-435
SK-MEL-28 = system: SK-MEL-28
786-0 = system: 786-0
NCI-H23 = system: NCI-H23
SK-MEL-5 = system: SK-MEL-5
SF-295 = system: SF-295
OVCAR-8 = system: OVCAR-8
IGROV-1 = system: IGROV-1
U-251 = system: U-251
HOP-92 = system: HOP-92
CCRF-CEM = system: CCRF-CEM

Measured: GI50

O=C1C=CC(=NNc2ccccc2)C=CC1=O
inactive: OVCAR-4 7.46 µM | HOP-62 10.8 µM | HT-29 13.6 µM | UACC-62 12.8 µM | SF-268 16.3 µM | CAKI-1 13.9 µM | OVCAR-3 10.3 µM | DU-145 18 µM | UACC-257 18.8 µM | MDA-MB-435 12.9 µM | SK-MEL-28 14.4 µM | 786-0 18.4 µM | NCI-H23 14 µM | SK-MEL-5 11.5 µM | SF-295 6.85 µM | OVCAR-8 20.4 µM | IGROV-1 7.94 µM | U-251 7.71 µM | HOP-92 17.5 µM

CCCC(=O)OCOC(=O)N(C)/N=N/c1ccc(C(=O)OCC)cc1
inactive: OVCAR-4 39.4 µM | HOP-62 29 µM | HT-29 18.2 µM | UACC-62 15.4 µM | SF-268 28.3 µM | CAKI-1 43.8 µM | OVCAR-3 33.7 µM | CCRF-CEM 37.6 µM | DU-145 22.2 µM | UACC-257 33.7 µM | MDA-MB-435 44.1 µM | SK-MEL-28 57.7 µM | 786-0 17.7 µM | NCI-H23 24.3 µM | SK-MEL-5 29.6 µM | SF-295 15.8 µM | OVCAR-8 27.4 µM | IGROV-1 32 µM | U-251 25.2 µM | HOP-92 19.4 µM

CN(CCNC(=O)c1cc(-c2ccccc2)nc2ccccc12)CCNC(=O)c1cc(-c2ccccc2)nc2ccccc12
inactive: HOP-62 26.1 µM | HT-29 2.14 µM | UACC-62 12.9 µM | SF-268 8.51 µM | CAKI-1 > 100 µM | OVCAR-3 23 µM | CCRF-CEM 4.69 µM | DU-145 12.5 µM | UACC-257 3.05 µM | MDA-MB-435 6.92 µM | SK-MEL-28 2.19 µM | 786-0 5.96 µM | NCI-H23 > 45.4 µM | SK-MEL-5 2.31 µM | SF-295 13.2 µM | OVCAR-8 > 28.1 µM | IGROV-1 3.6 µM | U-251 8.75 µM | HOP-92 2.61 µM

COc1ccc(-c2cc(O)c3nc4ccccc4n3c2)cc1
inactive: OVCAR-4 > 100 µM | HOP-62 > 100 µM | HT-29 > 100 µM | UACC-62 > 100 µM | SF-268 > 100 µM | CAKI-1 > 100 µM | OVCAR-3 > 100 µM | CCRF-CEM > 100 µM | DU-145 > 100 µM | UACC-257 > 100 µM | MDA-MB-435 > 100 µM | SK-MEL-28 > 100 µM | 786-0 > 100 µM | NCI-H23 > 100 µM | SF-295 > 100 µM | OVCAR-8 > 100 µM | IGROV-1 71 µM | U-251 > 100 µM | HOP-92 > 100 µM

Cc1cn(Cc2cccc(C3=NCCCN3)c2)c(=O)n(Cc2cccc(C3=NCCCN3)c2)c1=O
inactive: OVCAR-4 > 100 µM | HOP-62 > 100 µM | UACC-62 > 100 µM | SF-268 > 100 µM | CAKI-1 > 100 µM | OVCAR-3 > 100 µM | CCRF-CEM > 100 µM | DU-145 > 100 µM | UACC-257 > 100 µM | MDA-MB-435 > 100 µM | SK-MEL-28 > 100 µM | 786-0 > 100 µM | NCI-H23 > 100 µM | SK-MEL-5 > 100 µM | SF-295 > 100 µM | OVCAR-8 > 100 µM | IGROV-1 > 100 µM | U-251 > 100 µM | HOP-92 > 100 µM

COc1ccc(C2=NN(C(=O)c3ccc(Cl)cc3)C(O)(c3cc(F)c(Cl)cc3Cl)C2)cc1OC (stereo not given)
inactive: OVCAR-4 18 µM | HOP-62 99.8 µM | HT-29 4.29 µM | SF-268 21.2 µM | CAKI-1 18.6 µM | OVCAR-3 41.8 µM | CCRF-CEM 1.99 µM | DU-145 8.51 µM | UACC-257 31.3 µM | MDA-MB-435 13.2 µM | SK-MEL-28 > 100 µM | 786-0 17.8 µM | NCI-H23 47.1 µM | SK-MEL-5 33.1 µM | SF-295 26 µM | OVCAR-8 58.1 µM | IGROV-1 35.1 µM | U-251 19.2 µM | HOP-92 13.2 µM

O=C(OCC1OC(c2nn[nH]n2)C(OC(=O)c2ccccc2)C1OC(=O)c1ccccc1)c1ccccc1 (stereo not given)
inactive: OVCAR-4 > 100 µM | HOP-62 > 100 µM | HT-29 61.9 µM | UACC-62 53 µM | SF-268 76.7 µM | CAKI-1 > 100 µM | OVCAR-3 > 100 µM | CCRF-CEM 96.6 µM | DU-145 > 100 µM | UACC-257 > 100 µM | MDA-MB-435 > 100 µM | 786-0 > 100 µM | NCI-H23 > 100 µM | SK-MEL-5 > 100 µM | SF-295 > 100 µM | OVCAR-8 > 100 µM | U-251 > 100 µM | HOP-92 > 100 µM

O=C(/C=C1\Nc2ccc([N+](=O)[O-])cc2N\C1=C/C(=O)c1ccc(F)cc1)c1ccc(F)cc1
inactive: OVCAR-4 > 100 µM | HOP-62 7.35 µM | HT-29 > 100 µM | UACC-62 29.4 µM | SF-268 9.71 µM | CAKI-1 48.1 µM | OVCAR-3 25 µM | CCRF-CEM 8.81 µM | DU-145 > 100 µM | UACC-257 > 100 µM | MDA-MB-435 > 100 µM | SK-MEL-28 > 100 µM | 786-0 12.9 µM | NCI-H23 19.9 µM | SK-MEL-5 78.5 µM | SF-295 14.9 µM | OVCAR-8 > 100 µM | IGROV-1 40 µM | U-251 10.2 µM | HOP-92 35.1 µM

O=C1CCC2(O)C3Cc4ccc(Oc5nnnn5-c5ccccc5)c5c4C2(CCN3CC2CC2)C1O5 (stereo not given)
inactive: OVCAR-4 79.6 µM | HOP-62 > 100 µM | HT-29 26.4 µM | UACC-62 28.7 µM | SF-268 34.7 µM | CAKI-1 > 100 µM | OVCAR-3 46.7 µM | CCRF-CEM 18.6 µM | DU-145 > 100 µM | UACC-257 28.2 µM | MDA-MB-435 19.9 µM | SK-MEL-28 14.9 µM | 786-0 20 µM | NCI-H23 > 100 µM | SK-MEL-5 12.8 µM | SF-295 70 µM | OVCAR-8 63.4 µM | IGROV-1 > 100 µM | U-251 33.4 µM | HOP-92 50.2 µM

CC(O)(CNS(=O)(=O)c1ccccc1)c1ccccc1 (stereo not given)
inactive: OVCAR-4 > 100 µM | HOP-62 > 100 µM | HT-29 > 100 µM | UACC-62 > 100 µM | SF-268 > 100 µM | CAKI-1 > 100 µM | OVCAR-3 > 100 µM | CCRF-CEM > 100 µM | DU-145 > 100 µM | MDA-MB-435 > 100 µM | SK-MEL-28 > 100 µM | 786-0 > 100 µM | NCI-H23 > 100 µM | SK-MEL-5 > 100 µM | SF-295 > 100 µM | OVCAR-8 > 100 µM | IGROV-1 > 100 µM | U-251 > 100 µM | HOP-92 > 100 µM

CCOC(=O)c1c(N2CCOCC2)[nH]c(=O)c(C(c2ccc(N(C)C)cc2)c2c(O)c(C(=O)OCC)c(N3CCOCC3)[nH]c2=O)c1O
inactive: OVCAR-4 > 100 µM | HOP-62 > 100 µM | HT-29 > 100 µM | UACC-62 > 100 µM | SF-268 > 100 µM | CAKI-1 > 100 µM | OVCAR-3 > 100 µM | CCRF-CEM 54.2 µM | DU-145 > 100 µM | UACC-257 > 100 µM | MDA-MB-435 > 100 µM | SK-MEL-28 > 100 µM | 786-0 > 100 µM | NCI-H23 > 100 µM | SK-MEL-5 > 100 µM | SF-295 > 100 µM | OVCAR-8 > 100 µM | U-251 > 100 µM | HOP-92 > 100 µM

CCCN(CCCc1ccccc1)CCc1ccc2[nH]c(=S)[nH]c2c1
inactive: OVCAR-4 76.4 µM | HOP-62 26.5 µM | UACC-62 31 µM | SF-268 52.4 µM | CAKI-1 28.9 µM | OVCAR-3 37.1 µM | DU-145 44.3 µM | UACC-257 25.6 µM | MDA-MB-435 18.7 µM | SK-MEL-28 20.1 µM | 786-0 12.6 µM | NCI-H23 40.6 µM | SF-295 12.4 µM | OVCAR-8 28.8 µM | IGROV-1 14.1 µM | U-251 33.4 µM | HOP-92 8.87 µM

O=S(=O)(O)CCCC1S(=O)(=O)OCCOS1(=O)=O
inactive: OVCAR-4 > 100 µM | HOP-62 > 100 µM | HT-29 > 100 µM | UACC-62 > 100 µM | SF-268 > 100 µM | CAKI-1 > 100 µM | OVCAR-3 > 100 µM | DU-145 > 100 µM | UACC-257 > 100 µM | MDA-MB-435 > 100 µM | SK-MEL-28 > 100 µM | 786-0 > 100 µM | NCI-H23 > 100 µM | SK-MEL-5 > 100 µM | SF-295 > 100 µM | OVCAR-8 > 100 µM | IGROV-1 > 100 µM | U-251 > 100 µM | HOP-92 > 100 µM

FC(F)(F)c1ccc2c(c1)nc(-c1ccccc1)n2CC1CCCN2CCCCC12 (stereo not given)
inactive: OVCAR-4 34.8 µM | HOP-62 27.5 µM | HT-29 16.1 µM | UACC-62 16.6 µM | SF-268 15.6 µM | CAKI-1 17.3 µM | OVCAR-3 23.5 µM | DU-145 27 µM | UACC-257 15.9 µM | MDA-MB-435 18.3 µM | SK-MEL-28 18.2 µM | 786-0 15.7 µM | SK-MEL-5 14.9 µM | SF-295 15.1 µM | OVCAR-8 18.6 µM | IGROV-1 18.3 µM | U-251 20.3 µM | HOP-92 18.8 µM
